{"source": "ChEMBL document CHEMBL5380790", "about": "(J Med Chem, 2023)", "key": {"[1]": {"test": "Plasma clearance in Beagle dog at 0.2 mg/kg, iv and measured upto 24 hrs", "format": "ADME, organism-based, Canis lupus familiaris"}, "[2]": {"test": "Volume of distribution at steady state in Han Wistar rat at 0.2 mg/kg, iv and measured upto 24 hrs", "format": "ADME, organism-based", "settings": "in vivo, read-out: Vdss"}, "[3]": {"test": "Octanol-water distribution coefficient, logD of the compound at pH 7.4", "format": "physicochemical"}, "[4]": {"target": "Platelet-derived growth factor receptor alpha (Homo sapiens, UniProt P16234)", "sequence (P16234 whole entry)": "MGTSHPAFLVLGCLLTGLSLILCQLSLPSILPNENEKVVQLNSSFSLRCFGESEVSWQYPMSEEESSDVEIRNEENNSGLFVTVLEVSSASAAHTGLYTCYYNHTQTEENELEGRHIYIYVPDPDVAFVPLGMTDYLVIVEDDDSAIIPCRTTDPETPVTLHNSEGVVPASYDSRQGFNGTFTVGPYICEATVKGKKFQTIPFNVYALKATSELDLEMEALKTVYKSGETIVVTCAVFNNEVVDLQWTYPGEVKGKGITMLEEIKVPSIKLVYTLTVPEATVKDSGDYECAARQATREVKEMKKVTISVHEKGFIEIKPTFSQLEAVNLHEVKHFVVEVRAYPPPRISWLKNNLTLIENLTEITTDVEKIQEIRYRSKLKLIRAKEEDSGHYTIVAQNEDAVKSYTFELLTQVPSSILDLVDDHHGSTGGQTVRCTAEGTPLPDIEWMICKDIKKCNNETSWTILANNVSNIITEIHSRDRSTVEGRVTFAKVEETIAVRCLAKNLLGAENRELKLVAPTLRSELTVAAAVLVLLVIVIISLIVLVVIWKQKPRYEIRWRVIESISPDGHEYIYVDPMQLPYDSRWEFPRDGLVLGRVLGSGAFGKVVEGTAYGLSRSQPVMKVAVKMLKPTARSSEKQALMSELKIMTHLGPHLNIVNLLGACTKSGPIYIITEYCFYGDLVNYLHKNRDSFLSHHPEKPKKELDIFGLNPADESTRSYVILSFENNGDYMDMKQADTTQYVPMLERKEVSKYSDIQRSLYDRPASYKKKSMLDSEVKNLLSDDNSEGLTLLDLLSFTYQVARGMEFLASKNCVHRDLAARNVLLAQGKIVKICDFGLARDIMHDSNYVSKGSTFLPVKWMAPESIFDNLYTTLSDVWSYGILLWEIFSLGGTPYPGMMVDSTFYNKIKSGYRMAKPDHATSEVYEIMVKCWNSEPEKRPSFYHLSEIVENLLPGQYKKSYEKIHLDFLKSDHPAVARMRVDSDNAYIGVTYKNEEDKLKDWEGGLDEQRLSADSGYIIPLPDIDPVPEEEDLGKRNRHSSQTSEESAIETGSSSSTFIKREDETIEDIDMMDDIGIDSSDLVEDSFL", "test": "Inhibition of PDGFRA (unknown origin) using 33P-ATP as substrate incubated for 120 mins by radiometric kinase assay"}, "[5]": {"test": "Genotoxicity in Salmonella typhimurium by Ames test", "format": "toxicity", "settings": "salmonella enterica subsp. enterica serovar typhimurium"}, "[6]": {"target": "T1, Platelet-derived growth factor receptor beta (Homo sapiens, UniProt P09619)", "T1 sequence (P09619 whole entry)": "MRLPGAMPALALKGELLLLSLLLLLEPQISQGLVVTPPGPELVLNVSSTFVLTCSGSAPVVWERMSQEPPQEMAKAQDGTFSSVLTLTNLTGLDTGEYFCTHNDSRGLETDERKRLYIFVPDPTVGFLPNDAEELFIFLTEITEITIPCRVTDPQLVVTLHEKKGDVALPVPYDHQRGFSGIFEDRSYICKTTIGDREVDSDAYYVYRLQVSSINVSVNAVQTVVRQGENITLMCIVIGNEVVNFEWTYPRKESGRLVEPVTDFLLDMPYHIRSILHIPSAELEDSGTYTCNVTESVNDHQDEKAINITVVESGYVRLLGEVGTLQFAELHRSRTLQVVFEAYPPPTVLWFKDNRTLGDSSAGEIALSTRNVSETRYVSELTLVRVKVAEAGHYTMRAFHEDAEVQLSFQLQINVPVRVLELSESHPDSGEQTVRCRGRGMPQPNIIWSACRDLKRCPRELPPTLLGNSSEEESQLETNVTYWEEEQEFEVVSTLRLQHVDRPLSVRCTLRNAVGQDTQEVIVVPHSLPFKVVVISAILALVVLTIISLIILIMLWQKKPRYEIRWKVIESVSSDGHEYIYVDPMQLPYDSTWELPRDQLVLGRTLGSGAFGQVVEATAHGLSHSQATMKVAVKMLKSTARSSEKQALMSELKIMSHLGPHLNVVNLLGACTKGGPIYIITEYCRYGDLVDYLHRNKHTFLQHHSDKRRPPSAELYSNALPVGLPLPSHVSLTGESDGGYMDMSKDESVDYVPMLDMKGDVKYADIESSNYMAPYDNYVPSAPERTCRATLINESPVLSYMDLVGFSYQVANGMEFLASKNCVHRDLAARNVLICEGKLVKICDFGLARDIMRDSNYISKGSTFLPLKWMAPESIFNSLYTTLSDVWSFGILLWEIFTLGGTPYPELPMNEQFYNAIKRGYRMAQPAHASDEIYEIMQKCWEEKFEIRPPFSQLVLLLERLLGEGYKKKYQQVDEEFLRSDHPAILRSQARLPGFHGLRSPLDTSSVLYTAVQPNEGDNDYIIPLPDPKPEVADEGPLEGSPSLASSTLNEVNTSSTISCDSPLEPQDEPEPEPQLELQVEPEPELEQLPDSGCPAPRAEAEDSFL", "test": "Inhibition of PDGFRB (unknown origin) using 33P-ATP as substrate incubated for 120 mins by radiometric kinase assay"}, "[7]": {"target": "Mast/stem cell growth factor receptor Kit (Homo sapiens, UniProt P10721)", "sequence (P10721 whole entry)": "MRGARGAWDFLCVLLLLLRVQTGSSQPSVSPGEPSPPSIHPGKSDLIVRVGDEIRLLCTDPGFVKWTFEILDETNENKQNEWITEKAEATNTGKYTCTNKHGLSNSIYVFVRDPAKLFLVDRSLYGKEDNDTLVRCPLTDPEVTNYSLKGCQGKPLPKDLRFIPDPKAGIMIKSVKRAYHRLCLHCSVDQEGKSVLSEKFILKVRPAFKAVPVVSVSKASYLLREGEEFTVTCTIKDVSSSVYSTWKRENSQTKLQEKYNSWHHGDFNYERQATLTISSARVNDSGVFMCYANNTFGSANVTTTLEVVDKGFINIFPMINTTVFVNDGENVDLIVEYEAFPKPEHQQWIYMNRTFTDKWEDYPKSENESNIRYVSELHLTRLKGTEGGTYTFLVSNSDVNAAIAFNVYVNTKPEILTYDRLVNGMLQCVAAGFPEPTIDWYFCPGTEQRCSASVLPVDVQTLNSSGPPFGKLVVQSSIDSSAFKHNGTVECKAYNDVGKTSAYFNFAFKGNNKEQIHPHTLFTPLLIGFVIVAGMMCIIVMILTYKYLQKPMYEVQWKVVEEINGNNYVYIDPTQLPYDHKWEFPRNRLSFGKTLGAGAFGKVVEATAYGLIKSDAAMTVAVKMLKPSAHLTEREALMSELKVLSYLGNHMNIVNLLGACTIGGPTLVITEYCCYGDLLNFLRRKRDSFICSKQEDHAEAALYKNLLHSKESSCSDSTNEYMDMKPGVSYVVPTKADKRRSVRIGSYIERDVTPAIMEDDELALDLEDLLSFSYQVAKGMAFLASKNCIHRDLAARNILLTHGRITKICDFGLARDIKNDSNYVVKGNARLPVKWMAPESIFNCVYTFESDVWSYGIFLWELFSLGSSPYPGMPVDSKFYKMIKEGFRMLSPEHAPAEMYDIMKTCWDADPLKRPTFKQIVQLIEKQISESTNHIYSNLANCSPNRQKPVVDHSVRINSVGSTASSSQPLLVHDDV", "test": "Inhibition of wild type KIT (unknown origin) at 1 uM using 33P-ATP as substrate incubated for 120 mins by radiometric kinase assay"}, "[8]": {"target": "Mast/stem cell growth factor receptor Kit (Homo sapiens, UniProt P10721, N822K)", "sequence (P10721 26-976 N822K limits assumed)": "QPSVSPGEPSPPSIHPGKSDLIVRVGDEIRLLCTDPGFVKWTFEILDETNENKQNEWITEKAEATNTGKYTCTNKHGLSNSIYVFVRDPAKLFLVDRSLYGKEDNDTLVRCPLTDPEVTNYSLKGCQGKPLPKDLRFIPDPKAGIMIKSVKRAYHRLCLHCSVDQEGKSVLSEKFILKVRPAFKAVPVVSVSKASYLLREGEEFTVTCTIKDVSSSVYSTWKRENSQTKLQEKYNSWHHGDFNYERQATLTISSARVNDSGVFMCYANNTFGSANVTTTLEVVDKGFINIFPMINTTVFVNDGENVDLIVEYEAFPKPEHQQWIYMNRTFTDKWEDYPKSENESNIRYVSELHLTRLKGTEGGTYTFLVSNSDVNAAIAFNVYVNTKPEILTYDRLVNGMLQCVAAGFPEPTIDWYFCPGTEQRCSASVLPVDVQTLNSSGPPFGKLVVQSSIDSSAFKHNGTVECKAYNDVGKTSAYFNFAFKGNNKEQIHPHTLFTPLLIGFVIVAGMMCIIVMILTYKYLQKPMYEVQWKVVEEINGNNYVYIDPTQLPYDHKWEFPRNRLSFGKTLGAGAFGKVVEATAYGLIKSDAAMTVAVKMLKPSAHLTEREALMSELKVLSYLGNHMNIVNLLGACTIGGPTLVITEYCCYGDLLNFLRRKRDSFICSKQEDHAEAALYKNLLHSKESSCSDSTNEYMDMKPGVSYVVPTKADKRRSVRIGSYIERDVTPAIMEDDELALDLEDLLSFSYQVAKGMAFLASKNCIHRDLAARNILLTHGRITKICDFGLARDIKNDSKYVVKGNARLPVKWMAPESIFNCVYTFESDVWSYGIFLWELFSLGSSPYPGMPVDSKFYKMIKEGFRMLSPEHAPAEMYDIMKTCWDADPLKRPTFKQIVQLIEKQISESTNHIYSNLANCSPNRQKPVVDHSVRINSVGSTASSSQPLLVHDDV", "test": "Inhibition of KIT N822K mutant autophosphorylation in human Kasumi 1 cells harboring KIT N822K mutation in exon 17 incubated for 45 mins by Luminex-based bead assay", "format": "cell-based"}, "[9]": {"test": "Half life in Cynomolgus monkey at 0.2 mg/kg, iv and measured upto 24 hrs", "format": "ADME, organism-based, Macaca fascicularis", "settings": "in vivo"}, "[10]": {"test": "Volume of distribution at steady state in Beagle dog at 0.2 mg/kg, iv and measured upto 24 hrs", "format": "ADME, organism-based, Canis lupus familiaris", "settings": "in vivo, read-out: Vdss"}, "[11]": {"target": "T1, Platelet-derived growth factor receptor beta", "test": "Inhibition of PDGFRB (unknown origin) at 1 uM using 33P-ATP as substrate incubated for 120 mins by radiometric kinase assay"}, "[12]": {"test": "Plasma clearance in CD-1 mouse at 0.2 mg/kg, iv and measured upto 24 hrs", "format": "ADME, organism-based"}, "[13]": {"test": "Metabolic stability in human hepatocytes assessed as intrinsic clearance measured per million cells", "format": "ADME, cell-based, Hepatocyte", "settings": "read-out: CLH"}, "GIST430": {"test_system": "GIST430", "format": "functional, cell-based", "settings": "Homo sapiens, dose 10.0 µM"}, "GIST-430/654": {"test_system": "GIST-430/654", "format": "functional, organism-based", "settings": "Homo sapiens, dose 35.0 mg/kg, route po, time 30.0 day"}, "[14]": {"test_system": "Mast/stem cell growth factor receptor Kit (Homo sapiens), P10721 [V559D]", "sequence (P10721 whole entry V559D)": "as the sequence (P10721 whole entry) above, with V559D counted along it", "test": "Inhibition of recombinant human KIT V559D mutant in exon 11 using polyGT and ATP as substrate preincubated for 20 mins followed by substrate addition and measured after 240 mins by FRET assay", "settings": "time 260.0 min"}, "[15]": {"target": "T2, Receptor-type tyrosine-protein kinase FLT3 (Homo sapiens, UniProt P36888)", "T2 sequence (P36888 whole entry)": "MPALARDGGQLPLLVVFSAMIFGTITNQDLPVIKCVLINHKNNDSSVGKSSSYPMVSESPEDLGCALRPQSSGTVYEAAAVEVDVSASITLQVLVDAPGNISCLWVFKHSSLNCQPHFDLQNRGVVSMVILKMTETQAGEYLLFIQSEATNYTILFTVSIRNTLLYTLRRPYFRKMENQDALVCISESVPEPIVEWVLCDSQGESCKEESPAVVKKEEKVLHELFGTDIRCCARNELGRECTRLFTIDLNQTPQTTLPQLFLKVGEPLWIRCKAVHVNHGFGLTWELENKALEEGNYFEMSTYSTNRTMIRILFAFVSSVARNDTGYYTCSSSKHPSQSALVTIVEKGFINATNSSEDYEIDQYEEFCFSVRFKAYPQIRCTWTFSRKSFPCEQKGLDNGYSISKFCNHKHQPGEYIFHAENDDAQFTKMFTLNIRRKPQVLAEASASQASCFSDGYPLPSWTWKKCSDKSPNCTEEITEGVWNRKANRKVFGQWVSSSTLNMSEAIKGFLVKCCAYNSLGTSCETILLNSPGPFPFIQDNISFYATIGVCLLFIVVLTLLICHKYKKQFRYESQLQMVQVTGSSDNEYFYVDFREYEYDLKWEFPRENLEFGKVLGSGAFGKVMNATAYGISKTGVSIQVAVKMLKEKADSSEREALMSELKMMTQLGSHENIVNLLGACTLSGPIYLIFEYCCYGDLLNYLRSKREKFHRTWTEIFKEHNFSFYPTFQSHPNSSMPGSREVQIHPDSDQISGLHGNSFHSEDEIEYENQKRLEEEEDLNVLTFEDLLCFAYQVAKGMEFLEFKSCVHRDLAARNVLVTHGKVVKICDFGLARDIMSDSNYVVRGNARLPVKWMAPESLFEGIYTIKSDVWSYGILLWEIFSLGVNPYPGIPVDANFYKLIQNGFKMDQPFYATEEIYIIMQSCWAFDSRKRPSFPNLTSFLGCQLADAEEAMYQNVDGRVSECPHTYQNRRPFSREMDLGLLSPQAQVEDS", "test": "Inhibition of FLT3 (unknown origin) using 33P-ATP as substrate incubated for 120 mins by radiometric kinase assay"}}, "note": "Activity calls are given as the source filed them. The rule behind the calls is not given here.", "data": [{"smiles": "Cn1cc(-c2ccc(CNc3cc(-c4cnc5cc(OCCCN6CCCC6)ccn45)ncn3)cc2)cn1", "note": "[IDRX-42]", "values": [{"measurement": "clearance", "setting": "[1]", "value": 36.7, "unit": "mL/min/kg"}, {"measurement": "Vd", "setting": "[2]", "value": 23.2, "unit": "L/kg"}, {"measurement": "logD", "setting": "[3]", "value": 2.6}, {"measurement": "IC50", "setting": "[4]", "value": 50, "unit": "nM"}, {"measurement": "Activity", "setting": "[5]", "value": "Non-Toxic"}, {"measurement": "IC50", "setting": "[6]", "value": 2.6, "unit": "nM"}, {"measurement": "inhibition", "setting": "[7]", "value": "> 80", "unit": "%"}, {"measurement": "IC50", "setting": "[8]", "value": 4, "unit": "nM"}, {"measurement": "half-life", "setting": "[9]", "value": 4.4, "unit": "h"}, {"measurement": "Vd", "setting": "[10]", "value": 34.6, "unit": "L/kg"}, {"measurement": "inhibition", "setting": "[11]", "value": "> 80", "unit": "%"}, {"measurement": "clearance", "setting": "[12]", "value": 18.3, "unit": "mL/min/kg"}, {"measurement": "hepatocyte CLint", "setting": "[13]", "value": 21, "unit": "µL/min/1e6 cells"}, {"measurement": "Activity", "setting": "GIST430", "value": "inactive"}, {"measurement": "Activity", "setting": "GIST-430/654", "value": "Active"}, {"measurement": "inhibition", "setting": "[14]", "value": "Active"}, {"measurement": "IC50", "setting": "[15]", "value": 141, "unit": "nM"}]}]}
